Test results as given in article PMC5862592, “CDK8/19 inhibition induces premature G1/S transition and ATR-dependent cell death in prostate cancer cells” (Oncotarget, 2018).
Read-outs that look alike come from different tables or passages of the source.

Key:
Test in all cases: biochemical
Design in all cases: KINOMEscan active site-directed competition binding assay (DiscoveRx), 456 kinases, per cent of control at 300 nM
Details in all cases: read-out: Percent of Control (%)
ACVR1B = ACVR1B (Homo sapiens, UniProt P36896)
Procedure, shortened: (§1)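 Kinase panel (456 enzymes) profiled by competitive displacement at the active site; compounds run at 300 nmol/L.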

ALK(C1156Y) = ALK(C1156Y) (Homo sapiens, UniProt Q9UM73, C1156Y)
Sequence of ALK(C1156Y) (Q9UM73 whole entry C1156Y): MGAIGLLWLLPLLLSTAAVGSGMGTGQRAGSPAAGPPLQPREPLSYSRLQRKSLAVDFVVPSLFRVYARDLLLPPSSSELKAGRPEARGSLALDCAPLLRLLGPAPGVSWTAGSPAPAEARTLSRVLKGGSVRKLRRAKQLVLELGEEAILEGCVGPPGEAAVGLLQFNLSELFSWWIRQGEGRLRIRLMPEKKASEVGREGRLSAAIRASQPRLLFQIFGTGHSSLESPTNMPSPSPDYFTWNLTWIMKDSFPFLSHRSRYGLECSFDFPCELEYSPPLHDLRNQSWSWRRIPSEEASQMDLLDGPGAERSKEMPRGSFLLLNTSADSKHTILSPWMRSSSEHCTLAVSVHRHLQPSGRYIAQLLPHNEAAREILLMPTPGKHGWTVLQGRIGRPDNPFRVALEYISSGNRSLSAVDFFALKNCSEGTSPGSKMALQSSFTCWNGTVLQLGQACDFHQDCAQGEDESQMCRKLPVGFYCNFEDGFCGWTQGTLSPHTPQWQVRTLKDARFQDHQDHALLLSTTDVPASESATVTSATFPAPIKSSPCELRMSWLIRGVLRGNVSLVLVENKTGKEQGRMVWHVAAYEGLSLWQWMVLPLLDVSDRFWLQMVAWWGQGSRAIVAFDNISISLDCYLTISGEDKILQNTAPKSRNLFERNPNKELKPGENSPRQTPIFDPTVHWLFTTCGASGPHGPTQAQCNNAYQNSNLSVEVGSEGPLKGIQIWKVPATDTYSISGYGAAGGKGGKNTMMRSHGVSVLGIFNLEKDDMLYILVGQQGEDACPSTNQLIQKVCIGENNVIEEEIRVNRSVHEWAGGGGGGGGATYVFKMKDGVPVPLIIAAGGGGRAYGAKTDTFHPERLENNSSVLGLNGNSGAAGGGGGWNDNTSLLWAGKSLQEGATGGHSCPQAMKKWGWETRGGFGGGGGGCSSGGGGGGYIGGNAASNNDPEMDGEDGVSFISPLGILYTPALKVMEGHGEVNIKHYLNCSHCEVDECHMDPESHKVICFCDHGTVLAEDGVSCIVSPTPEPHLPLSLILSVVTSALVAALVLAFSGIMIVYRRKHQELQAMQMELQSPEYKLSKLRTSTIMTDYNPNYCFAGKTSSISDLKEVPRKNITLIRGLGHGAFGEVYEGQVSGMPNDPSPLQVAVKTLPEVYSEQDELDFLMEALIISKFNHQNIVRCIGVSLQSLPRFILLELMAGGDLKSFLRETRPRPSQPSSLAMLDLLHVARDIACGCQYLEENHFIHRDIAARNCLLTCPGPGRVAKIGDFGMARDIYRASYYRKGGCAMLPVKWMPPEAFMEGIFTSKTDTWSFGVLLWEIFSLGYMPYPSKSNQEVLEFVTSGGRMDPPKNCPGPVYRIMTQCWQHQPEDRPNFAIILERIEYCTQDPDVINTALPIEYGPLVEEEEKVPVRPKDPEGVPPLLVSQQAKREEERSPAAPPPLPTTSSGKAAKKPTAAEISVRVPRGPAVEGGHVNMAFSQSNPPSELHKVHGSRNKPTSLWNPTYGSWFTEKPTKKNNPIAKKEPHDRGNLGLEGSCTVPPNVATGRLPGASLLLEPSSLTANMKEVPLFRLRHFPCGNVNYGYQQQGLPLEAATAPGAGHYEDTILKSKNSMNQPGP
Procedure, shortened: as §1

CAMKK1 = CAMKK1 (Homo sapiens, UniProt Q8N5S9)
Procedure, shortened: as §1

CDK7 = CDK7 (Homo sapiens, UniProt P50613)
Sequence of CDK7 (P50613 whole entry): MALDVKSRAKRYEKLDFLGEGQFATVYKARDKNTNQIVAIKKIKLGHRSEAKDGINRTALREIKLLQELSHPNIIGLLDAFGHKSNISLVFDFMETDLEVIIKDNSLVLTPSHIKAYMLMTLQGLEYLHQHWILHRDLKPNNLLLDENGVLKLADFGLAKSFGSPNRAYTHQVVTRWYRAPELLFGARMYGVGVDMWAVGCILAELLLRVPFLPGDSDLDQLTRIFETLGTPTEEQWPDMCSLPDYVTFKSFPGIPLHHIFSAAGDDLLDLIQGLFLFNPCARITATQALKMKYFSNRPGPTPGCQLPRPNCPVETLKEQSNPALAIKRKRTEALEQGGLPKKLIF
Procedure, shortened: as §1

CDK8 = CDK8 (Homo sapiens, UniProt P49336)
Procedure, shortened: as §1

DYRK1B = DYRK1B (Homo sapiens, UniProt Q9Y463)
Sequence of DYRK1B (Q9Y463 whole entry): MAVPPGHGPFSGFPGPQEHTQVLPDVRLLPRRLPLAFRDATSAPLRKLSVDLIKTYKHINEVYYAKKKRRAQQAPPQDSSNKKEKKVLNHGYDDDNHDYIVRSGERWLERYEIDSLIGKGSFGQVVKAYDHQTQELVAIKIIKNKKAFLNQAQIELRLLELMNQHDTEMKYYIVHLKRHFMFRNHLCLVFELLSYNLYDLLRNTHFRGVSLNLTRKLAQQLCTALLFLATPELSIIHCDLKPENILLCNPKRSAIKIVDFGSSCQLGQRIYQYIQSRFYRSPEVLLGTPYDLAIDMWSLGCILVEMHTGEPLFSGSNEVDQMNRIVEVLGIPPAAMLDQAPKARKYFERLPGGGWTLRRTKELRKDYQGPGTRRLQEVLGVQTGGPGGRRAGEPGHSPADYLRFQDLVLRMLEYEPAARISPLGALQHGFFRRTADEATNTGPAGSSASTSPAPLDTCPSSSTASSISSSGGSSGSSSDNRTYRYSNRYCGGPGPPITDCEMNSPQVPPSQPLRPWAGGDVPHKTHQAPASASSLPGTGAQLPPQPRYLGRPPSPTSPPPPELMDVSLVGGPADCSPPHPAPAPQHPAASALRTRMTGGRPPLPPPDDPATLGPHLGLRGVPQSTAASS
Procedure, shortened: as §1

EGFR(L858R,T790M) = EGFR(L858R,T790M) (Homo sapiens, UniProt P00533, L858R/T790M)
Procedure, shortened: as §1

EPHA8 = EPHA8 (Homo sapiens, UniProt P29322)
Procedure, shortened: as §1

FLT3(N841I) = FLT3(N841I) (Homo sapiens, UniProt P36888, N841I)
Procedure, shortened: as §1

MARK4 = MARK4 (Homo sapiens, UniProt Q96L34)
Procedure, shortened: as §1

MLK1 = target: T1, MLK1 (Homo sapiens, UniProt P80192)
T1 construct: gene MAP3K9
Procedure, shortened: as §1

PIK3CA(H1047L) = PIK3CA(H1047L) (Homo sapiens, UniProt P42336, H1047L)
Procedure, shortened: as §1

PKAC-alpha = target: T2, PKAC-alpha (Homo sapiens, UniProt P17612)
T2 construct: gene PRKACA
Procedure, shortened: as §1

ROS1 = ROS1 (Homo sapiens, UniProt P08922)
Procedure, shortened: as §1

[1] = target: T3, RPS6KA4(Kin.Dom.2-C-terminal) (Homo sapiens, UniProt O75676)
T3 construct: Kin.Dom.2-C-terminal
T3 sequence (O75676 whole entry): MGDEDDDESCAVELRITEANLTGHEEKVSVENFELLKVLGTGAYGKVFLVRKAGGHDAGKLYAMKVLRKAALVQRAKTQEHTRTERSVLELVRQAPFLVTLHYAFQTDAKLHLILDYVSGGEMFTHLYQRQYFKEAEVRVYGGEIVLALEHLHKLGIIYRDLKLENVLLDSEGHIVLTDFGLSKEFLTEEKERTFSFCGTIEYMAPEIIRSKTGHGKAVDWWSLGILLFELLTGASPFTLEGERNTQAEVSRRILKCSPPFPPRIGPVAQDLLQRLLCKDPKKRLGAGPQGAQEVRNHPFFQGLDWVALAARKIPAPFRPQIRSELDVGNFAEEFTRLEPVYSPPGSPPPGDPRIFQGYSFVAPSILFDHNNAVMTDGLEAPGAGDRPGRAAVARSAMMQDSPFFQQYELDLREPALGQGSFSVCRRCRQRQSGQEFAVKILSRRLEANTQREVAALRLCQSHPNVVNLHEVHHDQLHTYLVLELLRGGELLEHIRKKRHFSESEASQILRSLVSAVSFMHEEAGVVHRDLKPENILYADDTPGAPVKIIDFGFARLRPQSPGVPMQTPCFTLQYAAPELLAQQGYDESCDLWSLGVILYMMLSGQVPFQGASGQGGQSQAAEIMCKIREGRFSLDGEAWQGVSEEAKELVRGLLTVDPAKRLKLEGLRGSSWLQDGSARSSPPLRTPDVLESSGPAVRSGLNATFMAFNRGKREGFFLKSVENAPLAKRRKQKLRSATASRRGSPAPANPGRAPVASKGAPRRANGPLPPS
Procedure, shortened: as §1

[2] = target: T4, RSK1(Kin.Dom.1-N-terminal) (Homo sapiens, UniProt Q15418)
T4 construct: gene RPS6KA1; Kin.Dom.1-N-terminal
Procedure, shortened: as §1

TAOK2 = TAOK2 (Homo sapiens, UniProt Q9UL54)
Procedure, shortened: as §1

TNK1 = TNK1 (Homo sapiens, UniProt Q13470)
Procedure, shortened: as §1

TNK2 = TNK2 (Homo sapiens, UniProt Q07912)
Sequence of TNK2 (Q07912 whole entry): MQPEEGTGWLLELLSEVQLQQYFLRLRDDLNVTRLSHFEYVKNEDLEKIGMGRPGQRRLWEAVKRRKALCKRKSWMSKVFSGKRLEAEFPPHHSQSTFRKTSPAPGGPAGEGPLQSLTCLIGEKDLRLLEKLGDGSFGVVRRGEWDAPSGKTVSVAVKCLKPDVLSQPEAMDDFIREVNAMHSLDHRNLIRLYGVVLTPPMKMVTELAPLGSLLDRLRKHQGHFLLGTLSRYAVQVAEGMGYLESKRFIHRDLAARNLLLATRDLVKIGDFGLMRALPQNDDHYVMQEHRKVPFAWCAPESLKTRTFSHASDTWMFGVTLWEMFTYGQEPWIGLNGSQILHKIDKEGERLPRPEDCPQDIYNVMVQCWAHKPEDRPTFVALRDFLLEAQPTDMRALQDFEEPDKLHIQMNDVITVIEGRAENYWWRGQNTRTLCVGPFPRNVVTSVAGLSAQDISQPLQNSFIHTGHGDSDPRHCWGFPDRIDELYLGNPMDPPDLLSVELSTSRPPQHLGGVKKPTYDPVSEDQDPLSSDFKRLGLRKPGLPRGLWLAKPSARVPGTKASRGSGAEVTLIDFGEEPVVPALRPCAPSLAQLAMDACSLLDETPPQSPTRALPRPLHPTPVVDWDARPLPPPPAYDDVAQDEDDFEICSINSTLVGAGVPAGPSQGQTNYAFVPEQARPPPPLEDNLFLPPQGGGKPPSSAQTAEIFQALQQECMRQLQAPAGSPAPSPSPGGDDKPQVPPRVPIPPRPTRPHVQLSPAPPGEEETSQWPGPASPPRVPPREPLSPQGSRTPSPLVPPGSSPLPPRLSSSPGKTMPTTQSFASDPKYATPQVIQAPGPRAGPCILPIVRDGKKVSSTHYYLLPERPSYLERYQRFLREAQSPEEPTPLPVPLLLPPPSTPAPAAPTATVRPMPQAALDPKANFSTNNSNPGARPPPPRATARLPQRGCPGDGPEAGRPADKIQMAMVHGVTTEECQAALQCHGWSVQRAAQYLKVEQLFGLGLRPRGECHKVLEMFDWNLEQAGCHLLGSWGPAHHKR
Procedure, shortened: as §1

WEE1 = WEE1 (Homo sapiens, UniProt P30291)
Sequence of WEE1 (P30291 whole entry): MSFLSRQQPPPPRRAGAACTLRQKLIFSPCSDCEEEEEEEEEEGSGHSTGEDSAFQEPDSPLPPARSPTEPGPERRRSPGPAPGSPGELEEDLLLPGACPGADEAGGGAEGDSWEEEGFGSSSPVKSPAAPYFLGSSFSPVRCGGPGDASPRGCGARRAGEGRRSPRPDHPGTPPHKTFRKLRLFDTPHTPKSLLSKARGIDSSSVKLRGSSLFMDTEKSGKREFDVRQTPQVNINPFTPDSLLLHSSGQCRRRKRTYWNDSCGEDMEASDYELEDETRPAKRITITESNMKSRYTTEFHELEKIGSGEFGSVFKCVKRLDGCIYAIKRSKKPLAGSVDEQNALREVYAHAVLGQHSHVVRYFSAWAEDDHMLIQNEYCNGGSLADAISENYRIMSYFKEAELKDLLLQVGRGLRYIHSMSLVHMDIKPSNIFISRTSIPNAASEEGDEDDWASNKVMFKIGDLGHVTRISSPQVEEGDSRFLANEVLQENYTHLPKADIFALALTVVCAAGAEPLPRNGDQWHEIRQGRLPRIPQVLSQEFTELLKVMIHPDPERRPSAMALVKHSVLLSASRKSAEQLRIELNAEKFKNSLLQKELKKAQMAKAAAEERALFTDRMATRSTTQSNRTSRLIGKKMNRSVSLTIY
Procedure, shortened: as §1

ZAP70 = ZAP70 (Homo sapiens, UniProt P43403)
Procedure, shortened: as §1

Cc1ncccc1Oc1sc(C(N)=O)c2c1-c1c(cnn1C)CC2 [T-474, 1-methyl-8-((2-methylpyridin-3-yl)oxy)-4,5-dihydro-1H-thieno[3,4-g]indazole-6-carboxamide]
remaining binding at 0.3 µM (ACVR1B): 77% | remaining binding at 0.3 µM (ALK(C1156Y)): 98% | remaining binding at 0.3 µM (CAMKK1): 100% | remaining binding at 0.3 µM (CDK7): 100% | remaining binding at 0.3 µM (CDK8): 9.8% | remaining binding at 0.3 µM (DYRK1B): 24% | remaining binding at 0.3 µM (EGFR(L858R,T790M)): 85% | remaining binding at 0.3 µM (EPHA8): 91% | remaining binding at 0.3 µM (FLT3(N841I)): 97% | remaining binding at 0.3 µM (MARK4): 83% | remaining binding at 0.3 µM (MLK1): 100% | remaining binding at 0.3 µM (PIK3CA(H1047L)): 100% | remaining binding at 0.3 µM (PKAC-alpha): 90% | remaining binding at 0.3 µM (ROS1): 100% | remaining binding at 0.3 µM [1]: 95% | remaining binding at 0.3 µM [2]: 95% | remaining binding at 0.3 µM (TAOK2): 100% | remaining binding at 0.3 µM (TNK1): 98% | remaining binding at 0.3 µM (TNK2): 100% | remaining binding at 0.3 µM (WEE1): 90% | remaining binding at 0.3 µM (ZAP70): 100%

O=C(/C=C/c1cnccc1-c1ccc(F)cc1)Nc1ccc(CCc2nnco2)cc1 [T-418, (2E)-3-(4-(4-fluorophenyl)pyridin-3-yl)-N-(4-(2-(1,3,4-oxadiazol-2-yl)ethyl)phenyl)acrylamide]
remaining binding at 0.3 µM (ACVR1B; sheet T-418): 77% | remaining binding at 0.3 µM (ALK(C1156Y); sheet T-418): 91% | remaining binding at 0.3 µM (CAMKK1; sheet T-418): 100% | remaining binding at 0.3 µM (CDK7; sheet T-418): 100% | remaining binding at 0.3 µM (CDK8; sheet T-418): 48% | remaining binding at 0.3 µM (DYRK1B; sheet T-418): 67% | remaining binding at 0.3 µM (EGFR(L858R,T790M); sheet T-418): 98% | remaining binding at 0.3 µM (EPHA8; sheet T-418): 88% | remaining binding at 0.3 µM (FLT3(N841I); sheet T-418): 79% | remaining binding at 0.3 µM (MARK4; sheet T-418): 98% | remaining binding at 0.3 µM (MLK1; sheet T-418): 100% | remaining binding at 0.3 µM (PIK3CA(H1047L); sheet T-418): 100% | remaining binding at 0.3 µM (PKAC-alpha; sheet T-418): 66% | remaining binding at 0.3 µM (ROS1; sheet T-418): 100% | remaining binding at 0.3 µM ([1]; sheet T-418): 86% | remaining binding at 0.3 µM ([2]; sheet T-418): 78% | remaining binding at 0.3 µM (TAOK2; sheet T-418): 100% | remaining binding at 0.3 µM (TNK1; sheet T-418): 87% | remaining binding at 0.3 µM (TNK2; sheet T-418): 100% | remaining binding at 0.3 µM (WEE1; sheet T-418): 90% | remaining binding at 0.3 µM (ZAP70; sheet T-418): 86%
